These results are taken from publication PMC9606171, “Synthetic PPAR Agonist DTMB Alleviates Alzheimer’s Disease Pathology by Inhibition of Chronic Microglial Inflammation in 5xFAD Mice” (Neurotherapeutics, 2022).

Where two headings read alike, the source gives them in different places.

Series [1] in a line: Pharmacokinetics and brain distribution after oral administration. Format: in vivo, C57BL/6 mice. The note with it: male, C57BL/6, mouse, mice; for Kp: brain / plasma, po, 50 mg/kg. As to the method: To investigate the pharmacokinetics and brain distribution of DTMB, fifty-six male C57BL/6 mice (22–26 g) were fasted with water ad libitum for 16 h before oral administration of DTMB and randomly divided into seven groups (n=8 per each sampling time point). Mice were administered with a DTMB suspension in 1% carboxymethylcellulose at a dose of 50 mg/kg via oral gavage, and blood samples (approximately 0.1 mL) were collected at 0, 0.16, 0.5, 1, 4, 8, and 24 h via the abdominal artery. Subsequently, whole brain tissues were isolated, weighed, and homogenized with two volume of ice-cold 80% methanol solution using a tissue grinder. Blood samples were centrifuged at 12,000 g for 1 min to separate plasma. Aliquots of plasma (30 µL) and brain homogenate (50 µL) samples were stored at − 80 °C until analysis. Concentrations of DTMB in plasma and brain homogenate samples were analyzed using an Agilent 6470 triple quadrupole liquid chromatography-mass spectrometry (LC–MS/MS) system (Agilent, Wilmington, DE, USA). Aliquots of plasma (30 µL each) and brain homogenate (50 µL each) were added to 100 μL of internal standard solution (IS; berberin 0.1 ng/mL in methanol) and vigorously mixed for 5 min. After centrifugation at 16,000 g for 10 min, a 5 µL aliquot of the supernatant was injected into the LC–MS/MS system. DTMB was separated on a Synergi Polar RP column (2.0 × 150 mm, 4 μm particle size; Phenomenex, Torrence, CA, USA) using an isocratic mobile phase consisting of 10 mM ammonium formate buffer (10%) and methanol (90%) containing 0.1% formic acid at a flow rate of 0.25 mL/min. Quantification of the analyte peaks was carried out at m/z 513.2 → 283.0 for DTMB (TR (retention time) 4.7 min) and m/z 336.1 → 320.0 for berberine (TR 2.9 min) in a […] ionization mode with optimized fragmentor of 135 V and collision energy of 25 or 30 eV, respectively. The pharmacokinetic parameters of DTMB in the plasma and brain were determined by the non-compartmental analysis (WinNonlin® 5.1; Pharsight, Mountain View, CA, USA). Elimination half-life (T1/2) was calculated from the elimination coefficient (K) of DTMB concentrations. Cmax indicated the maximum plasma concentrations and Tmax indicated time to reach Cmax. AUClast and AUCinf were calculated from the area under plasma concentrations curve from zero to the last time point and to infinity, respectively.

The test system of series [2] is 5xFAD mice. Nature of the series: qPCR and western blot of inflammation markers in 5xFAD brain. Format: in vivo. As for the experimental part: (§1) DTMB was synthesized from Daejung Chemicals (Korea) and was dissolved in dimethyl sulfoxide (Sigma Aldrich, St. Louis, MO, USA) for cell-based experiments. To evaluate the effects of DTMB on 5xFAD mice, DTMB (10 mg/kg) and vehicle (1% carboxymethylcellulose and 10% DMSO) were orally administrated to four groups (wild-type, wild-type + DTMB, 5xFAD, and 5xFAD + DTMB) with a 6 day per week for 3 months.
Cells were lysed with lysis buffer containing 50 mM Tris (pH 7.4), 140 mM NaCl, 5 mM EDTA, and a protease inhibitor tablet, followed by sonication. Lysate protein concentrations were determined using Bradford reagents (AMERSCO, MA, USA). Proteins were resolved by sodium dodecyl sulfate (SDS) polyacrylamide gel electrophoresis, transferred to nitrocellulose membranes (Pall Corporation, New York, NY, USA), and incubated with blocking buffer (5% nonfat dry milk in TBS and 0.1% Tween 20) for 30 min. Western blot analyses were performed using primary antibodies against NF-κB, NLRP3, ASC, nicastrin, pen2 (Cell Signaling Technology, Danvers, MA, USA), Aph1 (Invitrogen), amyloid C-terminal fragment (Santa Cruz Biotechnology, Dallas, TX, USA), and GAPDH (Bethyl Laboratories, Mongomery, TX, USA). Secondary antibodies of rabbit (Promega), rat, and goat (Bethyl Laboratories) were used, and detection was performed with SUPEX ECL reagent (Neuronex, Korea) and an ImageQuant LAS-4000 (GE Healthcare, MA, USA), according to the manufacturer’s instructions. The integrated blot density was quantified through ImageJ.
Total RNA was isolated using TRI Reagent (Molecular Research Center, Cincinnati, OH, USA). RNA was reverse transcribed using the ImProm-II™ Reverse Transcription System (Promega) according to the manufacturer’s instructions. For detection and quantification, a StepOnePlus Real-Time PCR System (Applied Biosystems, Foster City, CA, USA) was used with FastStart Universal SYBR Green Master (Roche, Basel, Switzerland). Real-time qPCR data were analyzed using the comparative CT method. Sample sizes were 10–15 mice per group.
In general terms: Real-time PCR tracks product formation cycle by cycle.

Series [3] relates to 5xFAD mice. Nature of the series: RT-qPCR of magnetically sorted adult microglia. The class given is in vivo. Particulars: adult microglia sorted from 5xFAD mice. As for the experimental part: as §1
To isolate the adult microglia from DTMB- or vehicle-treated 5xFAD mice brain, magnetic-activated cell sorting (MACs) system was used. Whole brain tissue was dissociated to a single cell level using gentleMACs dissociation kit (Miltenyi Biotech, Bergisch Gladbach, Germany) according to manufacturer’s instruction. To separate the immune cell fraction, 47% percoll gradient was applied to single cell mixture and centrifuged at 2,000 rpm for 10 min. Adult microglia was isolated by LS column after incubating with anti-CD11b MicroBeads (Miltenyi Biotech). Separated adult microglia were used to analyze the expression of genes related to microglia activation and inflammation by performing RT-PCR. Sample sizes were 3 mice per group.

The mark [4] stands for this setting: hippocampal brain lysates, 5xFAD mice.

Take `COc1ccc(-c2cc(=O)oc3c(C)c(OC(=O)[C@H](Cc4c[nH]c5ccccc45)NC(=O)OC(C)(C)C)ccc23)cc1` [DTMB]: in series [1] (oral, plasma concentration range 0.63–66.9 ng/mL, read-out: mean brain DTMB concentration ratio over the plasma DTMB ([Brain]/[Plasma])), the Kp is 2.69. The Kp in series [1] (printed in the Brain column, 50 mg/kg oral, read-out: AUC ratio) was determined as 3.53. Also, in series [1] (Brain, 50 mg/kg oral), the time to peak (Tmax) is 0.94 ± 0.18 h and the half-life is 4.41 ± 1.11 h. For the same compound, in series [1] (Plasma, 50 mg/kg oral), the Tmax was 0.75 ± 0.27 h and the half-life was 1.64 ± 0.27 h. Further, the “expression levels of proinflammatory cytokines and related enzymes (Il-1β, Il-6, and Inos)” value in series [2] (5xFAD mouse brain, 10 mg/kg orally, 3 months) was “decreased”. Besides, in series [2] (setting [4]), the “level of ASC” value is “not changed significantly”, the “protein level of NF-κB” value is on record as “decreased” and the “protein level of NLRP3” value is listed as “decreased”. Further, in series [3], the “levels of microglial activation markers (Iba-1, Trem2, and Cd68)” value is “markedly decreased”; the “levels of proinflammatory cytokines (Tnf-α, Il-6, and Il-1β)” value is given as “markedly decreased”.

Broadly, the Tmax is the time from dosing to the highest level. For orientation: half-life means how long it takes for the measured level to halve.
